The values below come from patent publication US10968214B2, “KRas G12C inhibitors” (Eli Lilly and Company, priority 2018, dated 2021).

Test [1] addresses T1, constitutive RAS GTPAse activity in H358 cells (Homo sapiens, UniProt P01116, G12C).
T1 construct: host or cells: H358 human lung cancer cells
Nature of the test: H358 Cellular Active RAS GTPase ELISA. The class given is cell-based. The following applies: 2 hr, read-out: RAS-GTP. From the text:
This assay is used to measure the ability of test compounds to inhibit constitutive RAS GTPAse activity in human lung cancer cells H358 (ATCC CRL-5807). The RAS GTPase ELISA kit (Active Motif Cat #52097) contains a 96-well plate pre-coated with glutathione in order to capture a kit-supplied GST-Raf-RBD protein. Activated RAS (GTP-bound) in cell extracts specifically bind to the Raf-RBD. Bound RAS is detected with a primary antibody that recognizes human KRas. A secondary antibody conjugated with HRP recognizes the primary antibody and a development solution provides a chemiluminescent readout.
H358 cells are plated at 80,000 cells/well in 90 μL serum free media (RPMI 1640, GIBCO) and incubated overnight at 37° C./5% CO2. The next morning, 10 μL of serially-diluted (3-fold) test compounds (500 μM top concentration) and 10 μL of controls (Maximum signal wells: 5% DMSO and Minimum signal wells: 500 μM LSN3429410 as an inhibitor) are added to the cell plate and incubated for 2 hr at 37° C./5% CO2. Complete Lysis/Binding Buffer is prepared containing Protease Inhibitor cocktail and GST-Raf-RBD and stored on ice. One hour before cell plate incubation is completed, 50 μL of GST-Raf-RBD is diluted in lysis/binding buffer, and buffer is added to the ELISA assay plate and which is incubated for 1 hour at 4° C. with gently rocking. After 2 hr, the cells are washed with 100 μL ice-cold PBS and lysed with 100 μL lysis/binding buffer. The cell plate is shaken for 10 min at RT. The cell plate is then centrifuged at 1500 rpm for 10 min at RT. During this time, 1× Wash Buffer is prepared at RT and then is used to wash (3×100 μL) the GST-Raf-RBD coated assay plate. After washing, 50 μL of cell lysate is added to the GST-Raf-RBD coated assay plate and incubated for 1 hour at RT with gentle shaking. During this incubation period, 1× Antibody Binding Buffer is prepared and brought to RT. The assay plate is washed 3×100 μL with 1× Wash Buffer and then 50 μL of Primary Antibody (diluted 1:500 in 1× Antibody Binding buffer) is added. The plate is incubated for 1 hour at RT. The assay plate is washed 3×100 μl with 1× Wash Buffer and then 50 μL of Secondary Antibody (diluted 1:5000 in 1× Antibody Binding buffer) is added and incubated for 1 hour at RT. The assay plate is washed 4×100 μL with 1× Wash buffer and then 50 μL of chemiluminescent working solution is added at RT. The assay plate is then read on an EnVision™ Plate Reader (Perkin Elmer) using a luminescence program.
The signal is converted to percent inhibition using the following equation: % Inhibition=100−[(Test Compound Signal−Median Minimum Signal)/(Median Maximum Signal−Median Minimum Signal)×100]. The Maximum signal is a control well without inhibitor.
A general note: An ELISA detects its analyte on a solid surface through an enzyme-linked reagent.

Test [2] deals with phosphorylation of p-ERK1/2 in H358 cells. Kind of test: H358 Cellular Phospho-ERK AlphaLISA. The note with it: read-out: pERK. Type of test: cell-based, Human. As to the method: This assay is used to measure the ability of test compounds to inhibit the phosphorylation of p-ERK1/2, a downstream effector of KRas in Human lung cancer cells H358 (ATCC CRL-5807). Briefly, the AlphaLISA® SureFire® Ultra™ p-ERK 1/2 (Thr202/Tyr204) assay is a sandwich immunoassay for quantitative detection of phospho-ERK 1/2 (phosphorylated on Thr202/Tyr204 in ERK1, or Thr185/Tyr187 in ERK2) in cellular lysates using Alpha Technology (Perkin Elmer Cat #ALSU-PERK-A50K).
H358 cells are plated at 40K cells per well in 100 μL media (RPMI 1640, GIBCO Cat #22400-071) containing 10% FBS (GIBCO Cat #: 10082-147) in a 96 well plate (Costar #3596) and are incubated overnight in humid trays at 37° C., 5% CO2. The next morning, 10 μL of serially-diluted (3-fold) test compounds (50 μM top concentration) and 10 uL of controls (Maximum signal wells: 5% DMSO and Minimum signal wells: 2 μM of N-(3-{3-cyclopropyl-5-[(2-fluoro-4-iodophenyl)amino]-6,8-dimethyl-2,4,7-trioxo-3,4,6,7-tetrahydropyrido[4,3-D]pyrimidin-1(2H)-yl}phenyl)acetamide (trametinib, as a positive control) are added to the cell plate and incubated for 2 hr in humid trays at 37° C./5% CO2. Lysis Buffer is prepared at RT containing a protease and phosphatase inhibitor cocktail. Culture medium is removed by inverting and shaking the cell plate in the sink and then blotting onto a paper towel. Lysis buffer is added to the cell plate (50 μL per well) and the plate is incubated at RT for 10 min on a shaker. For p-ERK detection, acceptor beads are diluted into a suspension mixture with buffer. Using a Starlett liquid handler, 5 μL of acceptor beads and 2 μL of cell lysate are transferred as a single-step in-tip dilution to a 384 well assay plate. The assay plate is sealed with foil and is incubated at RT for 2 hrs. Donor beads are diluted into a suspension mixture with buffer. Using the Starlet, 5 μL of donor beads are added to the assay plate that is then sealed, wrapped with foil. The plate is incubated at RT for 2 hrs in the dark. The assay plate is then read on an EnVision™ Plate Reader (Perkin Elmer) using a luminescence program.
The signal is converted to percent inhibition using the following equation: % Inhibition=100−[(Test Compound Signal−Median Minimum Signal)/(Median Maximum Signal−Median Min Signal)×100]. The Maximum signal is a control well without inhibitor.

The target in the next test is KRas G12C (Homo sapiens, UniProt P01116, G12C). Kind of test: KRas G12C Probe Occupancy TR-FRET Assay. The class given is binding. The note with it: 60 min incubation of inhibitor with KRas G12C; read-out: TR-FRET 60 min. As to the method: Inhibitors are tested in dose response format from 10 mM stocks in 100% DMSO. The Labycyte Echo® 555 is used to dilute and transfer 100 nL per well containing a 10 point, 2.8-fold serial dilution to an assay plate. […] The signal ratio (em at 665/em at 615) is converted to percent inhibition using the following equation: % Inhibition=100−[(Test Compound Signal−Median Minimum Signal)/(Median Maximum Signal−Median Minimum Signal)×100].
KRas G12C, sequence (P01116 1-188 isoform P01116-2 G12C): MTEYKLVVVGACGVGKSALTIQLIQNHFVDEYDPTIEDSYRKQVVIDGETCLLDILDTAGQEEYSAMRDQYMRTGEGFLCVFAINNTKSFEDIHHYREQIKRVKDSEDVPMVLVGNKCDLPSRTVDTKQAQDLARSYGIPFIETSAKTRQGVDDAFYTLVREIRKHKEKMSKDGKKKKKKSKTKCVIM
For orientation: Time-resolved FRET reads energy transfer from a long-lived donor to a nearby acceptor.

For the next test, the system named is EL3187 (PDX). Nature of the test: Anti-tumor growth activity, EL3187 lung PDX. Type of test: in vivo. The note with it: EL3187 Lung PDX; Afatinib 25 mg/kg QDx28.

The structures appear in SMILES notation. Read-outs that look alike come from different tables or passages of the source.

T1 sequence (P01116 1-188 isoform P01116-2 G12C): as above

For `C=CC(=O)N1CCN(c2ncnc3cc(-c4ccc(F)c5sc(N)nc45)c(Cl)cc23)CC1` [Example 4, 1-{4-[7-(2-Amino-7-fluoro-1,3-benzothiazol-4-yl)-6-chloroquinazolin-4-yl]piperazin-1-yl}prop-2-en-1-one], the IC50 stood at 0.234 µM in test [1]; 0.0271 µM in test [2] (Homo sapiens, NCI-H358, 2 h); 0.025 µM on KRas G12C.

For `C=CC(=O)N1CCN(c2ncnc3cc(-c4ccc5oc(N)nc5c4)c(Cl)cc23)CC1` [reference compound], the IC50 in test [1] was more than 50 µM; in test [2] (Homo sapiens, NCI-H358, 2 h) it was more than 5 µM; at KRas G12C, 82.2 µM.

With `C=CC(=O)N1CCN(c2ncnc3c(F)c(-c4cc(O)cc5ccccc45)c(Cl)cc23)CC1` [reference compound], the IC50 came out at 0.392 µM in test [1]; 0.204 µM in test [2] (Homo sapiens, NCI-H358, 2 h); 0.0452 µM at KRas G12C.

Turning to `C=CC(=O)N1CCN(c2ncnc3c(F)c(-c4cccc5sc(N)nc45)c(Cl)cc23)CC1` [Example 5, 1-{4-[7-(2-Amino-1,3-benzothiazol-4-yl)-6-chloro-8-fluoroquinazolin-4-yl]piperazin-1-yl}prop-2-en-1-one], the IC50 turned out to be 0.104 µM in test [1]; 0.00973 µM in test [2] (Homo sapiens, NCI-H358, 2 h); 0.0278 µM at KRas G12C.

For `C=CC(=O)N1CCN(c2ncnc3c(F)c(-c4cc(F)c(F)c5sc(N)nc45)c(Cl)cc23)CC1` [Example 3, 1-{4-[7-(2-Amino-6,7-difluoro-1,3-benzothiazol-4-yl)-6-chloro-8-fluoroquinazolin-4-yl]piperazin-1-yl}prop-2-en-1-one], the IC50 in test [1] was 0.166 µM; in test [2] (Homo sapiens, NCI-H358, 2 h), 0.0153 µM; at KRas G12C, 0.0209 µM.

For the compound `C=CC(=O)N1CCN(c2ncnc3c(F)c(-c4c(O)cccc4F)c(Cl)cc23)CC1` [reference compound], the IC50 in test [1] is 3.78 µM; in test [2] (Homo sapiens, NCI-H358, 2 h) it was 1.6 µM.

With `C=CC(=O)N1CCN(c2ncnc3c(Cl)c(-c4ccc(F)c5sc(N)nc45)c(Cl)cc23)CC1` [Example 2, 1-{4-[7-(2-Amino-7-fluoro-1,3-benzothiazol-4-yl)-6,8-dichloroquinazolin-4-yl]piperazin-1-yl}prop-2-en-1-one], the IC50 amounted to 0.148 µM in test [1]; 0.0194 µM in test [2] (Homo sapiens, NCI-H358, 2 h); 0.0476 µM on KRas G12C.

For the compound `C=CC(=O)N1CCN(c2ncnc3c(F)c(-c4c(F)cc(F)c5sc(N)nc45)c(Cl)cc23)CC1` (single isomer, unassigned) [Example 6b, 1-{4-[7-(2-Amino-5,7-difluoro-1,3-benzothiazol-4-yl)-6-chloro-8-fluoroquinazolin-4-yl]piperazin-1-yl}prop-2-en-1-one], the IC50 in test [1] amounted to 0.743 µM; in test [2] (2 hr), 0.256 µM; on KRas G12C, 0.449 µM.

Turning to `C=CC(=O)N1CCN(c2ncnc3c(F)c(-c4c(F)cc(F)c5sc(N)nc45)c(Cl)cc23)CC1` (single isomer, unassigned) [Example 6a, 1-{4-[7-(2-Amino-5,7-difluoro-1,3-benzothiazol-4-yl)-6-chloro-8-fluoroquinazolin-4-yl]piperazin-1-yl}prop-2-en-1-one], the IC50 in test [1] is 0.0117 µM; in test [2] (2 hr), 0.00394 µM; at KRas G12C it was less than 0.0189 µM.

As to `CN(C)C/C=C/C(=O)Nc1cc2c(Nc3ccc(F)c(Cl)c3)ncnc2cc1O[C@H]1CCOC1` [Afatinib, afatinib, reference compound], the “In Vivo Anti-Tumor Activities” value in the test with EL3187 (PDX) came out at 17.1.
